Laboratory results taken from article PMC5218480 (PLoS ONE, 2017).

Test system: MV-4-11 cells
Assay: Gene expression microarray analysis (Affymetrix PrimeView) and GSEA
Format: cell-based, human
Design: RFU PODN (11730768_x_at) / Fold change /veh PODN (11730768_x_at) / RFU LINC00158 (11744669_a_at) / Fold change /veh LINC00158 (11744669_a_at) / RFU DUSP10 (11751237_a_at) / Fold change /veh DUSP10 (11751237_a_at) / RFU ID3 (11757404_x_at) / Fold change /veh ID3 (11757404_x_at) / RFU PLEKHG5 (11737974_s_at) / Fold change /veh PLEKHG5 (11737974_s_at) / RFU LRRC4B (11730491_at) / Fold change /veh LRRC4B (11730491_at) / RFU GIMAP4 (11747438_a_at) / Fold change /veh GIMAP4 (11747438_a_at) / RFU KRT8 (11758183_x_at) / Fold change /veh KRT8 (11758183_x_at) / RFU CNN1 (11734310_a_at) / Fold change /veh CNN1 (11734310_a_at) / RFU VPS37D (11726825_at) / Fold change /veh VPS37D (11726825_at) / RFU C10orf10 (11716522_x_at) / Fold change /veh C10orf10 (11716522_x_at) / RFU KIR2DL2 /// KIR2DL4 /// KIR2DL5A /// KIR2DL5B /// KIR2DS1 /// KIR2DS2 /// KIR2DS3 /// KIR2DS4 /// KIR3DL3 /// KIR3DL3 /// KIR3DS1 (11738374_at) / Fold change /veh KIR2DL2 /// KIR2DL4 /// KIR2DL5A /// KIR2DL5B /// KIR2DS1 /// KIR2DS2 /// KIR2DS3 /// KIR2DS4 /// KIR3DL3 /// KIR3DL3 /// KIR3DS1 (11738374_at) / RFU C1QL1 (11718748_at) / Fold change /veh C1QL1 (11718748_at) / RFU TMPRSS4 (11747572_a_at) / Fold change /veh TMPRSS4 (11747572_a_at) / RFU HAMP (11756126_x_at) / Fold change /veh HAMP (11756126_x_at) / RFU RNFT2 (11725882_a_at) / Fold change /veh RNFT2 (11725882_a_at) / RFU NR4A2 (11747474_a_at) / Fold change /veh NR4A2 (11747474_a_at) / RFU ABCC12 (11746883_a_at) / Fold change /veh ABCC12 (11746883_a_at) / RFU TMEM136 (11760407_x_at) / Fold change /veh TMEM136 (11760407_x_at) / RFU CLDN22 /// WWC2 (11732394_at) / Fold change /veh CLDN22 /// WWC2 (11732394_at) / RFU HLA-DPB1 (11760878_x_at) / Fold change /veh HLA-DPB1 (11760878_x_at) / RFU SPINT1 (11716480_a_at) / Fold change /veh SPINT1 (11716480_a_at) / RFU GAP43 (11754022_s_at) / Fold change /veh GAP43 (11754022_s_at) / RFU A4GNT (11735810_at) / Fold change /veh A4GNT (11735810_at) / RFU PRB3 (11715151_x_at) / Fold change /veh PRB3 (11715151_x_at) / RFU TUBB4B (11761932_at) / Fold change /veh TUBB4B (11761932_at) / RFU CAPN14 (11732068_a_at) / Fold change /veh CAPN14 (11732068_a_at) / RFU TMCC2 (11721928_a_at) / Fold change /veh TMCC2 (11721928_a_at) / RFU IRGQ (11745062_a_at) / Fold change /veh IRGQ (11745062_a_at) / RFU FAM174B (11720279_a_at) / Fold change /veh FAM174B (11720279_a_at) / RFU TMPRSS4 (11748680_a_at) / Fold change /veh TMPRSS4 (11748680_a_at) / RFU FAM212B (11763350_a_at) / Fold change /veh FAM212B (11763350_a_at) / RFU PLEKHG5 (11743358_a_at) / Fold change /veh PLEKHG5 (11743358_a_at) / RFU ZSCAN30 (11745921_a_at) / Fold change /veh ZSCAN30 (11745921_a_at) / RFU CMKLR1 (11741424_a_at) / Fold change /veh CMKLR1 (11741424_a_at) / RFU LOC101060620 /// MAPK8IP1 (11723275_at) / Fold change /veh LOC101060620 /// MAPK8IP1 (11723275_at) / RFU SPTSSB (11747773_x_at) / Fold change /veh SPTSSB (11747773_x_at) / RFU PRSS12 (11739890_at) / Fold change /veh PRSS12 (11739890_at) / RFU BIN1 (11741810_x_at) / Fold change /veh BIN1 (11741810_x_at) / RFU WNT11 (11732464_a_at) / Fold change /veh WNT11 (11732464_a_at) / RFU C10orf10 (11716521_a_at) / Fold change /veh C10orf10 (11716521_a_at) / RFU C5orf56 (11738089_at) / Fold change /veh C5orf56 (11738089_at) / RFU CYB561 (11721691_x_at) / Fold change /veh CYB561 (11721691_x_at) / RFU ANKRD19P (11752326_a_at) / Fold change /veh ANKRD19P (11752326_a_at) / RFU OR2T12 /// OR2T33 /// OR2T8 (11738714_s_at) / Fold change /veh OR2T12 /// OR2T33 /// OR2T8 (11738714_s_at) / RFU VCAN (11748164_a_at) / Fold change /veh VCAN (11748164_a_at) / RFU JSRP1 (11732532_at) / Fold change /veh JSRP1 (11732532_at) / RFU KRTAP10-11 (11738290_x_at) / Fold change /veh KRTAP10-11 (11738290_x_at) / RFU MYO3A (11730013_a_at) / Fold change /veh MYO3A (11730013_a_at) / RFU EBF3 (11725865_a_at) / Fold change /veh EBF3 (11725865_a_at) / RFU CAMK2N1 (11719241_x_at) / Fold change /veh CAMK2N1 (11719241_x_at) / RFU C5orf56 (11738088_a_at) / Fold change /veh C5orf56 (11738088_a_at) / RFU OLFML3 (11715873_a_at) / Fold change /veh OLFML3 (11715873_a_at) / RFU LOC100653217 /// NTM (11731650_a_at) / Fold change /veh LOC100653217 /// NTM (11731650_a_at) / RFU MAPK11 (11762145_a_at) / Fold change /veh MAPK11 (11762145_a_at) / RFU FIZ1 (11724087_x_at) / Fold change /veh FIZ1 (11724087_x_at) / RFU OASL (11726364_x_at) / Fold change /veh OASL (11726364_x_at) / RFU SOX15 (11748057_x_at) / Fold change /veh SOX15 (11748057_x_at) / RFU CD79A (11719716_a_at) / Fold change /veh CD79A (11719716_a_at) / RFU HIST1H1D (11736915_at) / Fold change /veh HIST1H1D (11736915_at) / RFU CASKIN2 (11723855_a_at) / Fold change /veh CASKIN2 (11723855_a_at) / RFU LOC730098 (11760151_x_at) / Fold change /veh LOC730098 (11760151_x_at) / RFU OR4N2 (11742367_at) / Fold change /veh OR4N2 (11742367_at) / RFU PRRT2 (11749266_a_at) / Fold change /veh PRRT2 (11749266_a_at) / RFU SNX32 (11753110_a_at) / Fold change /veh SNX32 (11753110_a_at) / RFU CDHR5 (11726645_a_at) / Fold change /veh CDHR5 (11726645_a_at) / RFU RCAN1 (11760418_a_at) / Fold change /veh RCAN1 (11760418_a_at) / RFU FAM167A (11723789_a_at) / Fold change /veh FAM167A (11723789_a_at) / RFU FAM26E (11764081_at) / Fold change /veh FAM26E (11764081_at) / RFU ISYNA1 (11749810_s_at) / Fold change /veh ISYNA1 (11749810_s_at) / RFU ACY1 (11761880_at) / Fold change /veh ACY1 (11761880_at) / RFU 11764098_at / Fold change /veh 11764098_at / RFU SAMD14 (11745864_x_at) / Fold change /veh SAMD14 (11745864_x_at) / RFU NPB (11741838_a_at) / Fold change /veh NPB (11741838_a_at) / RFU TMPRSS6 (11731388_a_at) / Fold change /veh TMPRSS6 (11731388_a_at) / RFU KRTAP10-2 (11738614_at) / Fold change /veh KRTAP10-2 (11738614_at) / RFU ARHGAP8 /// PRR5-ARHGAP8 (11727945_x_at) / Fold change /veh ARHGAP8 /// PRR5-ARHGAP8 (11727945_x_at) / RFU KRTAP5-7 /// NADSYN1 (11734609_at) / Fold change /veh KRTAP5-7 /// NADSYN1 (11734609_at) / RFU RASL12 (11751679_a_at) / Fold change /veh RASL12 (11751679_a_at) / RFU CDKN2B (11736163_a_at) / Fold change /veh CDKN2B (11736163_a_at) / RFU PRF1 (11729649_at) / Fold change /veh PRF1 (11729649_at) / RFU, ZNF638 /// ZNF638-IT1 / Fold change vs veh, ZNF638 /// ZNF638-IT1 / RFU, PANK3 / Fold change vs veh, PANK3 / RFU, SH3YL1 / Fold change vs veh, SH3YL1 / RFU, ZEB2 / Fold change vs veh, ZEB2 / RFU, NRIP1 / Fold change vs veh, NRIP1 / RFU, PTTG1IP / Fold change vs veh, PTTG1IP / RFU, CAPN2 / Fold change vs veh, CAPN2 / RFU, MED14 / Fold change vs veh, MED14 / RFU, SNORA58 / Fold change vs veh, SNORA58 / RFU, C1orf63 / Fold change vs veh, C1orf63 / RFU, LRRFIP1 / Fold change vs veh, LRRFIP1 / RFU, NDUFAF7 / Fold change vs veh, NDUFAF7 / RFU, SLC12A2 / Fold change vs veh, SLC12A2 / RFU, IBTK / Fold change vs veh, IBTK / RFU, ESF1 / Fold change vs veh, ESF1 / Fold change vs veh, TMEM50B / RFU, TAOK1 / Fold change vs veh, TAOK1 / RFU, ACBD3 / Fold change vs veh, ACBD3 / RFU, TMA16 / Fold change vs veh, TMA16 / RFU, RWDD3 / Fold change vs veh, RWDD3 / RFU, BCAT1 / Fold change vs veh, BCAT1 / RFU, EDEM3 / Fold change vs veh, EDEM3 / RFU, TMEM33 / Fold change vs veh, TMEM33 / RFU, WDR75 / Fold change vs veh, WDR75 / RFU, AHCTF1 / Fold change vs veh, AHCTF1 / RFU, TFRC / Fold change vs veh, TFRC / RFU, ZDHHC17 / Fold change vs veh, ZDHHC17 / RFU, NOM1 / Fold change vs veh, NOM1 / RFU, ARL8B / Fold change vs veh, ARL8B / RFU, ZBTB11 / Fold change vs veh, ZBTB11 / RFU, TAMM41 / Fold change vs veh, TAMM41 / RFU, KIAA1704 /// LOC100996395 / Fold change vs veh, KIAA1704 /// LOC100996395 / RFU, ING1 / Fold change vs veh, ING1 / RFU, TRMT61B / Fold change vs veh, TRMT61B / RFU, FUBP3 / Fold change vs veh, FUBP3 / RFU, TP53 / Fold change vs veh, TP53 / RFU, TNKS2 / Fold change vs veh, TNKS2 / RFU, ZFP14 / Fold change vs veh, ZFP14 / RFU, ACTR2 / Fold change vs veh, ACTR2 / RFU, PPP3R1 / Fold change vs veh, PPP3R1 / RFU, PIK3R1 / Fold change vs veh, PIK3R1 / RFU, HNRNPA1 / Fold change vs veh, HNRNPA1 / RFU, RNF170 / Fold change vs veh, RNF170 / RFU, ZNF28 / Fold change vs veh, ZNF28 / RFU, RNGTT / Fold change vs veh, RNGTT / RFU, OGT / Fold change vs veh, OGT / RFU, BRD1 / Fold change vs veh, BRD1 / RFU, MARS / Fold change vs veh, MARS / RFU, ZNF655 / Fold change vs veh, ZNF655 / RFU, FAHD1 / Fold change vs veh, FAHD1 / RFU, BDP1 / Fold change vs veh, BDP1 / RFU, LRRCC1 / Fold change vs veh, LRRCC1 / RFU, ARID1A / Fold change vs veh, ARID1A / RFU, ZNF146 / Fold change vs veh, ZNF146 / RFU, ZNF330 / Fold change vs veh, ZNF330 / RFU, GPN3 / Fold change vs veh, GPN3 / RFU, C9orf123 / Fold change vs veh, C9orf123 / RFU, N4BP2L2 / Fold change vs veh, N4BP2L2 / RFU, ARFIP1 / Fold change vs veh, ARFIP1 / RFU, FAM179B / Fold change vs veh, FAM179B / RFU, BCL10 / Fold change vs veh, BCL10 / RFU, UHRF1BP1L / Fold change vs veh, UHRF1BP1L / RFU, BET1 / Fold change vs veh, BET1 / RFU, CNOT2 / Fold change vs veh, CNOT2 / RFU, ZNF268 / Fold change vs veh, ZNF268 / Fold change vs veh, ZNF507 / RFU, DGCR2 / Fold change vs veh, DGCR2 / RFU, WDSUB1 / Fold change vs veh, WDSUB1 / Fold change vs veh, HSP90B1 /// MIR3652 / RFU, ADSS / Fold change vs veh, ADSS / RFU, GK / Fold change vs veh, GK / RFU, ZNF148 / Fold change vs veh, ZNF148 / RFU, TAF9 / Fold change vs veh, TAF9 / RFU, SLC1A5 / Fold change vs veh, SLC1A5 / RFU, SLMO2 / Fold change vs veh, SLMO2 / RFU, ABCC4 / Fold change vs veh, ABCC4 / RFU, LOC101060439 /// RAP1B / Fold change vs veh, LOC101060439 /// RAP1B / RFU, RFX7 / Fold change vs veh, RFX7 / RFU, GTPBP10 / Fold change vs veh, GTPBP10 / RFU, CNEP1R1 / Fold change vs veh, CNEP1R1 / RFU, BIVM-ERCC5 /// ERCC5 / Fold change vs veh, BIVM-ERCC5 /// ERCC5 / RFU, ILF3 / Fold change vs veh, ILF3 / RFU 11762660_at / Fold change /veh 11762660_at / RFU VCAN (11757783_s_at) / Fold change /veh VCAN (11757783_s_at) / RFU DDX43 (11728927_at) / Fold change /veh DDX43 (11728927_at) / RFU KRT8 (11758188_x_at) / Fold change /veh KRT8 (11758188_x_at) / RFU NKD1 (11759106_at) / Fold change /veh NKD1 (11759106_at) / RFU SRD5A1 (11742802_a_at) / Fold change /veh SRD5A1 (11742802_a_at) / RFU TPSAB1 /// TPSB2 (11721975_s_at) / Fold change /veh TPSAB1 /// TPSB2 (11721975_s_at) / RFU GSTM3 (11746129_a_at) / Fold change /veh GSTM3 (11746129_a_at) / RFU IL23R (11737362_x_at) / Fold change /veh IL23R (11737362_x_at) / RFU TMEM51 (11727254_a_at) / Fold change /veh TMEM51 (11727254_a_at) / RFU PIWIL2 (11732686_x_at) / Fold change /veh PIWIL2 (11732686_x_at) / RFU ORM1 (11744905_x_at) / Fold change /veh ORM1 (11744905_x_at) / RFU CCDC152 (11743942_at) / Fold change /veh CCDC152 (11743942_at) / RFU ECM1 (11717891_a_at) / Fold change /veh ECM1 (11717891_a_at) / RFU IL23R (11748794_a_at) / Fold change /veh IL23R (11748794_a_at) / RFU TNFAIP8L3 (11732012_x_at) / Fold change /veh TNFAIP8L3 (11732012_x_at) / RFU MBOAT4 (11741988_at) / Fold change /veh MBOAT4 (11741988_at) / RFU 11764193_at / Fold change /veh 11764193_at / RFU TMEM53 (11763286_at) / Fold change /veh TMEM53 (11763286_at) / RFU MAGEB2 (11727129_at) / Fold change /veh MAGEB2 (11727129_at) / RFU TMEM200A (11744735_a_at) / Fold change /veh TMEM200A (11744735_a_at) / RFU CCDC152 (11751479_a_at) / Fold change /veh CCDC152 (11751479_a_at) / RFU FAM211A (11726209_a_at) / Fold change /veh FAM211A (11726209_a_at) / RFU RGS16 (11746705_a_at) / Fold change /veh RGS16 (11746705_a_at) / RFU VCAN (11755009_s_at) / Fold change /veh VCAN (11755009_s_at) / RFU RHOB (11743442_s_at) / Fold change /veh RHOB (11743442_s_at) / RFU RGS16 (11720943_a_at) / Fold change /veh RGS16 (11720943_a_at) / RFU RGS16 (11720944_at) / Fold change /veh RGS16 (11720944_at) / RFU, VPS4B / Fold change vs veh, VPS4B / RFU, CREB1 / Fold change vs veh, CREB1 / RFU, DNAJC13 / Fold change vs veh, DNAJC13 / RFU, GNAQ / Fold change vs veh, GNAQ / RFU, CDK5R1 / Fold change vs veh, CDK5R1 / RFU, ZRANB3 / Fold change vs veh, ZRANB3 / RFU, CUL4A / Fold change vs veh, CUL4A / RFU, CCNY / Fold change vs veh, CCNY / RFU, UFL1 / Fold change vs veh, UFL1 / RFU, COG3 / Fold change vs veh, COG3 / RFU, DIAPH2 / Fold change vs veh, DIAPH2 / RFU, SKA2 / Fold change vs veh, SKA2 / RFU, AFF3 / Fold change vs veh, AFF3 / RFU, LMF1 / Fold change vs veh, LMF1 / RFU, IPO11 / Fold change vs veh, IPO11 / RFU, DFFB / Fold change vs veh, DFFB / RFU, FOXP1 / Fold change vs veh, FOXP1 / RFU, CARD8 / Fold change vs veh, CARD8 / RFU, STRN3 / Fold change vs veh, STRN3 / RFU, ADK / Fold change vs veh, ADK / RFU, RASSF2 / Fold change vs veh, RASSF2 / RFU, WIPF1 / Fold change vs veh, WIPF1 / RFU, LARP1B / Fold change vs veh, LARP1B / RFU, RASA1 / Fold change vs veh, RASA1 / RFU, RB1 / Fold change vs veh, RB1 / RFU, PPFIA1 / Fold change vs veh, PPFIA1 / RFU, MAT2A / Fold change vs veh, MAT2A / RFU, CCT5 / Fold change vs veh, CCT5 / RFU, WDR92 / Fold change vs veh, WDR92 / RFU, CUX1 / Fold change vs veh, CUX1 / RFU, TTC7A / Fold change vs veh, TTC7A / RFU, TMEM135 / Fold change vs veh, TMEM135 / RFU, DEPTOR / Fold change vs veh, DEPTOR / RFU, CPM / Fold change vs veh, CPM / RFU, DNAJB6 / Fold change vs veh, DNAJB6 / RFU, CACNA2D3 / Fold change vs veh, CACNA2D3 / RFU, DTX4 / Fold change vs veh, DTX4 / RFU, TFCP2 / Fold change vs veh, TFCP2 / RFU, GMCL1 /// GMCL1P1 / Fold change vs veh, GMCL1 /// GMCL1P1 / RFU, AEBP2 / Fold change vs veh, AEBP2 / RFU, SNHG1 /// SNORD22 /// SNORD25 /// SNORD26 /// SNORD27 /// SNORD28 /// SNORD29 /// SNORD31 / Fold change vs veh, SNHG1 /// SNORD22 /// SNORD25 /// SNORD26 /// SNORD27 /// SNORD28 /// SNORD29 /// SNORD31 / Fold change (Aza/veh), C12orf56 (ProbeSet 11735607_a_at) / Fold change (ACY-1035/veh), C12orf56 (ProbeSet 11735607_a_at) / Fold change (Aza/veh), FGFR1OP (ProbeSet 11751329_s_at) / Fold change (ACY-1035/veh), FGFR1OP (ProbeSet 11751329_s_at) / Fold change (Aza/veh), VPS36 (ProbeSet 11739960_a_at) / Fold change (ACY-1035/veh), VPS36 (ProbeSet 11739960_a_at) / RFU SYPL1 (11715823_x_at) / Fold change /veh SYPL1 (11715823_x_at) / RFU IGFBP7 (11715501_s_at) / Fold change /veh IGFBP7 (11715501_s_at) / RFU REEP3 (11722064_at) / Fold change /veh REEP3 (11722064_at) / RFU IGLL1 (11728026_x_at) / Fold change /veh IGLL1 (11728026_x_at): dose or concentration left out as unconfirmed
Settings: ProbeSet 11759094_a_at; LIST D

Nc1ncn([C@@H]2O[C@H](CO)[C@@H](O)[C@H]2O)c(=O)n1 [azacitidine]
RFU, GNAQ: 421.57 RFU
